# According to patent EP1981504B1, “THIADIAZOLE DERIVATIVES FOR THE TREATMENT OF NEURO DEGENERATIVE DISEASES” (NV reMYND, priority 2006, dated 2007):
# What was measured:
# M17-SYNwt cells = assay: α-synuclein cytotoxicity assay (LDH leakage from paraquat-treated α-synuclein over-expressing neuroblastoma cells); format: cell-based, human; settings: paraquat 32 mM, 40 hours, LDH release; for EC50: Homo sapiens, Neuroblastoma cell; for EC50 / EC50 (µg/mL): 10 point curves in duplicate; for %I: percent inhibition of synuclein cytotoxicity at most effective concentration of test compound, relative to untreated paraquat cells
# Method in brief: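 M17 neuroblastoma cells over-expressing wild-type α-synuclein were challenged with paraquat, and cytotoxicity was read as LDH release. Protection was expressed as percent reduction of paraquat-induced LDH release relative to untreated paraquat cells and control cells. Actives were retested in 10-point duplicate dose responses.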
# [1] = test system: dopaminergic substantia nigra neurons; assay: in vivo inhibition of paraquat-triggered loss of substantia nigra neurons (tyrosine hydroxylase immunohistochemistry); settings: mice, paraquat intraperitoneal not higher than 8 mg/kg/day, compound not higher than 20 mg/kg body weight/day, 8 weeks treatment, versus vehicle
# Procedure: In order to model neuronal loss in the substantia nigra region of the brain, mice were treated with paraquat (intraperitoneal) at a dose not higher than 8 mg/kg/day for a continuous period of 15-100 days. These mice were also chronically co-treated during that period with: • compound 60 (1-[4-methoxyphenylsulfonyl]-4-[3-(4-methylbenzyl)-1,2,4-thiadiazol-5-yl]-2-methylpiperazine), or • compound 32 (1-[4-methoxyphenylsulfonyl]-4-[3-(4-fluorobenzyl)-1,2,4-thiadiazol-5-yl]piperazine), or • compound 53 (1-[4-methoxyphenylsulfonyl]-4-[3-(3-methoxy-benzyl)-1,2,4-thiadiazol-5-yl]piperazine), each being administered at a dose not higher than 20 mg/kg body weight/day), or by vehicle only (no active compound). Mice treatment by means of vehicle or a compound of the invention started 2 days before administration of paraquat.
# At the end of the treatment period, mice were sacrificed and the corresponding brains were used for immunohistochemical analysis. […] Using antibodies raised against tyrosin hydroxylase (anti-tyrosin hydroxylase), tyrosine hydroxylase containing neurons in the brains were detected.
# Three groups of mice were treated with either paraquat and compound 53 (group 3; n=6), or paraquat and vehicle of compound 53 (group 2; n=4), or vehicle paraquat and vehicle of compound 53 (group 1; n=3). […] Per mouse, the median %TH-positive areas (of the substantia nigra regions) was determined. […]
Compound,EC50 (M17-SYNwt cells) [ng/mL],%I (M17-SYNwt cells) [%],TH-positive area of the substantia nigra [1],EC50 (µg/mL) (M17-SYNwt cells)
"COc1ccc(S(=O)(=O)N2CCN(c3nc(Cc4cccc(OC)c4)ns3)CC2)cc1 [Compound 53, 1-[4-methoxyphenylsulfonyl]-4-[3-(3-methoxybenzyl)-1,2,4-thiadiazol-5-yl]piperazine]",0.66,83,protects dopaminergic substantia nigra neurons against paraquat-triggered degeneration,
COc1ccc(S(=O)(=O)N2CCN(c3nc(Cc4ccc(F)c(C)c4)ns3)CC2)cc1 [Compound 204],1,90,,
COc1ccc(Cc2nsc(N3CCN(S(=O)(=O)c4ccc(OC)cc4)CC3)n2)cc1 [Compound 205],1.1,53,,
COc1cccc(Cc2nsc(N3CCN(S(=O)(=O)c4ccc(Br)cc4)CC3)n2)c1 [Compound 207],28,83,,
"COc1ccc(S(=O)(=O)N2CCN(c3nc(Cc4cccc(OC)c4)ns3)CC2C)cc1 (stereo not shown) [Compound 208, 1-[4-methoxyphenylsulfonyl]-4-[3-(3-methoxybenzyl)-1,2,4-thia-diazol-5-yl]-2-methyl-piperazine]",3.4,92,,
"O=S(=O)(c1ccc(O)cc1)N1CCN(c2nc(Cc3ccc(F)cc3)ns2)CC1 [Compound 217, 1-(4-hydroxybenzenesulfonyl)-4-[3-(4-fluoro-benzyl)-1,2,4-thiadiazol-5-yl]piperazine]",,77,,
"N-(2,6-dichlorophenyl)-4-[3-(4-fluorobenzyl)-1,2,4-thiadiazol-5-yl]-2-methylpiperazine-1-carboxamide [Compound 21]",,70,,"0,79 µg/mL"
"N-(3-cyanophenyl)-4-[3-(4-fluorobenzyl)-1,2,4-thiadiazol-5-yl]-2-methylpiperazine-1-carboxamide [Compound 22]",,59,,"0,88 µg/mL"
